Data as given in patent US20130316963A1, “INNATE DEFENCE REGULATORY PEPTIDE COMPOSITIONS FOR TREATMENT OF ARTHRITIS” (UNIVERSITY OF MANITOBA, priority 2010, published 2013).

How the values were obtained:
Format in all cases: cell-based
human FLS cells = assay: Cellular cytotoxicity by release of lactate dehydrogenase (LDH); conditions: presence and absence of cytokine stimulation, 24 hr; IDR-1002 100 μg/ml, IDR-1 200 μg/ml; data not shown
Protocol: Synovial tissues were obtained from patients with OA in accordance to a protocol by the Institutional Review Board at the University of Manitoba. FLS cells were isolated from the synovial tissues following the procedure taught by Kammouni et al. (2007, Regulation of apoptosis in fibroblast-like synoviocytes by the hypoxia-induced Bcl-2 family member Bcl-2/adenovirus E1B 19-kd protein-interacting protein 3. Arthritis Rheum. 56:2854-2863). […] Cellular cytotoxicity was evaluated by monitoring the release of lactate dehydrogenase (LDH) employing a colorimetric detection kit (Roche Diagnostics, Laval, QC, Canada).
Inflammatory cytokines TNF-α and IL-1β stimulate cells types such as FLS, chondrocytes and macrophages resulting in the production of MMP-3 in arthritic joints. […] In this study we evaluated the impact of IDR peptides on TNF-α and IL-1β-induced MMP-3 production. […] The peptides were not cytotoxic to the FLS cells in the presence and absence of cytokine stimulation, as determined by monitoring the tissue culture supernatants for the release of LDH after 24 hr of stimulation (data not shown). Tissue culture supernatants were monitored after 24 hr of stimulation for MMP-3 production by ELISA. […]

JNK = JNK activity assay (immunoprecipitation, c-Jun Ser73 phosphorylation immunoblot) in human FLS cells; conditions: IL-1β 10 ng/ml 15 min; IDR-1002 100 μg/ml 45 min prior to or at time of stimulation; FIG. 8
Protocol: (§1) Human FLS cells (5×10^4/ml) were seeded in a total volume of 20 ml per 75 cm^2 tissue culture flask in complete DMEM media containing 10% FBS for each condition. The cells were allowed to adhere overnight. Following day the media was changed to 10 ml complete DMEM containing 1% FBS. The cells were either un-stimulated or treated with IL-1β (10 ng/ml) in the presence or absence of IDR-1002 (100 μg/ml) for 15 min. IL-1β is known to induce JNK activation, and also p38 MAPK activity, after 15 min in FLS cells. Peptide IDR-1002 (100 μg/ml) was added either 45 min prior to, or at the time of stimulation with IL-1β. Total protein concentration was evaluated for each cell lysate employing micro BCA (Thermo Scientific). Kinase activities specific to JNK and to p38-MAPK were monitored employing the JNK activity assay kit and the p38 MAPK assay kit (Abcam Inc., Calif., USA) following the manufacturer's instructions. For JNK, 50 μg of total protein per cell lysate was used for immunoprecipitation employing a JNK-specific antibody. The eluate was treated with c-Jun substrate and ATP mixture. Subsequent phosporylation of c-Jun was evaluated by probing immunoblots with anti-phospho-c-Jun (Ser73) specific antibody. […] Subsequent phosporylation of ATF-2 was evaluated by probing immunoblots with a phospho-ATF-2 (Thr76) specific antibody. […]

p38 MAPK = p38 MAPK activity assay (immunoprecipitation, ATF-2 Thr76 phosphorylation immunoblot) in human FLS cells; conditions: IL-1β 10 ng/ml 15 min; IDR-1002 100 μg/ml 45 min prior to or at time of stimulation; FIG. 9
Protocol: as §1

VQRWLIVWRIRK (IDR-1002 peptide)
cytotoxicity to FLS cells (release of LDH) (human FLS cells): not cytotoxic
IL-1β-induced JNK activity and phosphorylation of c-Jun (Ser73) (JNK): abrogated
IL-1β-induced p38 MAPK activity and phosphorylation of ATF-2 (Thr76) (p38 MAPK): abrogated
